Laboratory results: PMC10551045 (Journal of the American Chemical Society, 2023)
Where two headings read alike, the source gives them in different places. Values belong to the compound of their own block, whether it stands above or below them.

How the values were obtained:
[1] = system: primary human lung fibroblasts (HLF); test: cytotoxicity in control primary human lung fibroblasts; format: cell-based; details: read-out: HLF IC50
LN229 = test: cytotoxicity in hyper-MGMT methylated cell line; format: cell-based
[2] = brain tissue distribution pharmacokinetic study; details: 10 mg/kg, P.O., CD-1 mice
[3] = system: primary human astrocytes (HA); test: cytotoxicity in control primary human astrocytes; format: cell-based; details: for IC50: read-out: HA IC50
[4] = system: GBM CSCs and non-diseased cells; test: MS-based metabolite identification of aYM155 activation in cells; format: cell-based, human; details: 100 nM, 24 hours
GBM-A = test: cell killing, GBM-A patient-derived GBM CSC line; format: cell-based, human; details: for IC50: read-out: GBM-A IC50
[5] = system: control neural cell types; test: cytotoxicity in control neural cell types; format: cell-based, human; details: read-out: IC50 in control neural cell types
U87-EGFRvIII cells = test: Cell-titer glo cell viability in U87-EGFRvIII cells after shRNA knockdown; format: cell-based; details: for cell viability on loss of RIPK2 / sensitivity following shRNA-mediated RIPK1 knockdown: U87-EGFRvIII; for cell viability on loss of RIPK2: RIPK2 shRNA vs control, YM155 20 nM, aYM155 160 nM; for sensitivity following shRNA-mediated RIPK1 knockdown: induced tumor cell death; for IC50: read-out: 24-hour IC50 value
Casp-3/7 = test: Caspase-Glo 3/7 assay in HT-1080 cells; format: cell-based; details: for Casp3/7 activation on SLC35F2 shRNA knockdown: HT-1080; for Casp-3/7 activation in RIPK2 shRNA knockdown cells vs non-targeting control: HT-1080, 8 hours; for Casp-3/7 activation: HT-1080, 8 hours of treatment
U118MG = test: cytotoxicity in hypo-MGMT methylated cell line; format: cell-based; details: read-out: U118MG IC50
[6] = system: U87EGFRvIII intracranial xenografts; test: orthotopic intracranial GBM xenograft, tumor growth by FMT; format: in vivo, athymic nude mice; details: oral, 5mg/kg and 15 mg/kg, B.I.D.
[7] = system: WA09 human ES cell-derived neural progenitor cells (NPC); test: cytotoxicity in control neural progenitor cells; format: cell-based; details: for IC50: read-out: NPC IC50
survivin mRNA = format: in vivo, athymic nude mice; details: 1 hour after last dose of 9-day regimen
hERG channel = hERG channel (Homo sapiens, UniProt Q12809); test: hERG channel inhibition assay; format: biochemical; details: at 3 μM, highest tested concentration
[8] = two-week mouse tolerability study; format: in vivo; details: oral, 1.0 and 5.0 mg/kg B.I.D., two weeks, naïve animals
HT-1080 cells = test: Cell-titer glo cell viability in HT-1080 cells after shRNA RIPK2 knockdown; format: cell-based; details: HT-1080, RIPK2 shRNA vs control, 24 hours; YM155 4 nM, aYM155 40 nM
GBM-F = test: cell killing, GBM-F patient-derived GBM CSC line; format: cell-based, human; details: for IC50: read-out: GBM-F IC50
[9] = target: T1, recombinant human full-length RIPK2 (Homo sapiens, UniProt O43353); details: read-out: apparent Kd for RIPK2; cited from earlier work
Survivin [10] = test: Western blot of survivin in U87-EGFRvIII cells after shRNA RIPK2 knockdown; format: cell-based; details: U87MG stably expressing EGFRvIII, 100 nM, 24 hours
[11] = system: HT-1080 fibrosarcoma cells; test: cytotoxicity in HT-1080 fibrosarcoma cells; format: cell-based; details: Homo sapiens, HT-1080, read-out: HT-1080 IC50
Survivin [12] = test: Western blot of survivin in HT-1080 cells after shRNA RIPK2 knockdown; format: cell-based; details: 24 hours
IκBα phosphorylation = IκBα phosphorylation after NOD2 stimulation with L-18 MDP; format: cell-based; details: U87EGFRvIII cells, pretreatment 100nM, L-18 MDP stimulation
Casp-1 = Casp-1 activation in cells; format: cell-based; details: HT-1080, EGFRvIII amplified U87MG cells and GBM CSCs
[13] = target: T1, recombinant human full-length RIPK2; test: in vitro competitive binding, UV-dependent labeling of RIPK2 by cRIPGBM-PAP

T1 sequence (O43353 whole entry): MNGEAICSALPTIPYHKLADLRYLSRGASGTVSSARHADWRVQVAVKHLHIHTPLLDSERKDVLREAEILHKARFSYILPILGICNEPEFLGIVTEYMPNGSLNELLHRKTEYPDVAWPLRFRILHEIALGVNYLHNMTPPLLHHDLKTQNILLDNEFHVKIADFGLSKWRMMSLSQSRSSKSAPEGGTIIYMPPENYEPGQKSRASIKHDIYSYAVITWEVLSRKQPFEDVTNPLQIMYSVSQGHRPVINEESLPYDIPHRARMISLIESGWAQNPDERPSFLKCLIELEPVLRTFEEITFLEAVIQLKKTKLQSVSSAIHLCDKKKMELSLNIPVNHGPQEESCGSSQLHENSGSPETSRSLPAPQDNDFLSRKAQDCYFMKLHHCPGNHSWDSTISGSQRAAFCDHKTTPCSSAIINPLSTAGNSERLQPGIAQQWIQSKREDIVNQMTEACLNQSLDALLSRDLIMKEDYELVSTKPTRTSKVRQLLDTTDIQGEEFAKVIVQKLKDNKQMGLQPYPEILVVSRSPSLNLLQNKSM
Chain of hERG channel (Q12809 whole entry): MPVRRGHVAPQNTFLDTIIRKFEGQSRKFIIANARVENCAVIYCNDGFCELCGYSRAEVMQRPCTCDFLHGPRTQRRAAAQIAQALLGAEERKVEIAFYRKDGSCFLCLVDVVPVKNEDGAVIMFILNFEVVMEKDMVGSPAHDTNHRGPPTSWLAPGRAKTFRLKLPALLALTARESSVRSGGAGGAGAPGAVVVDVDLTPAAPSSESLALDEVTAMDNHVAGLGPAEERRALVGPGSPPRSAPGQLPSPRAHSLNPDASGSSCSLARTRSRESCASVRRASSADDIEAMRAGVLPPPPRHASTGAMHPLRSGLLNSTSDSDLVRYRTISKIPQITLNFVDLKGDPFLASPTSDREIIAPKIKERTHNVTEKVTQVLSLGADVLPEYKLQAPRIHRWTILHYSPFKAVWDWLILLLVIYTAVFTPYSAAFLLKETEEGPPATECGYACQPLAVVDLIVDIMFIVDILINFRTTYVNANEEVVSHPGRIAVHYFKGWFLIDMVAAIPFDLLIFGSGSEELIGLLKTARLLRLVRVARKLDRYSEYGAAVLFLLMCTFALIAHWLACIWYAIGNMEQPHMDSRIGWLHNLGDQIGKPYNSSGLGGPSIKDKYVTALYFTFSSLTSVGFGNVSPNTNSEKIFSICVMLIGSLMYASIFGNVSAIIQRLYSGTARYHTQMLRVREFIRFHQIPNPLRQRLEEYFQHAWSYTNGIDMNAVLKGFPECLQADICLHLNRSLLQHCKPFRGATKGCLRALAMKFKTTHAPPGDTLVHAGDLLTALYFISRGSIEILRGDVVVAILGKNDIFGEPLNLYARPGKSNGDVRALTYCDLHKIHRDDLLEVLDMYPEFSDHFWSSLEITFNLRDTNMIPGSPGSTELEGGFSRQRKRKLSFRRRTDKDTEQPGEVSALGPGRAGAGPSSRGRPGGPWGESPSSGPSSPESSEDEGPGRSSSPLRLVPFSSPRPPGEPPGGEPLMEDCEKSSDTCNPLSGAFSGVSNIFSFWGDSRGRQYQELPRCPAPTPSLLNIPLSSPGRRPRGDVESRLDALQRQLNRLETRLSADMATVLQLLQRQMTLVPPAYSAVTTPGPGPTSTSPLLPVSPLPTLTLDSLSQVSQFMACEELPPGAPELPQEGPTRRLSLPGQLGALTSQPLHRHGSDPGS

Compound: COCCN(C(C)=O)C1=C(NCc2cnccn2)C(=O)c2ccccc2C1=O [aYM155]
- IC50 ([1]; control cell type): 2000 nM
- IC50 (LN229; read-out: LN229 IC50, hyper-MGMT methylated): 12 nM
- brain Cmax [2]: 32 nM
- brain/plasma concentration ratio [2]: 0.56
- fold less potent compared to YM155 ([3]; HA): 12 fold
- IC50 ([3]; control cell type, 72 hours): 62 nM
- rates of conversion to YM155 in GBM CSC populations compared to non-transformed control cell types [4]: significantly higher
- fold less potent compared to YM155 (GBM-A; GBM-A): 2.2 fold
- IC50 (GBM-A; cell killing, 72 hours): 10 nM
- IC50 ([5]; HA and NPC): 62 to 97 nM
- cell viability on loss of RIPK2 (U87-EGFRvIII cells; 24 hours): significant rescue of cell viability
- sensitivity following shRNA-mediated RIPK1 knockdown (U87-EGFRvIII cells): No significant differences in sensitivity
- IC50 (U87-EGFRvIII cells; U87-EGFRvIII cells, 24 hours): 160 nM
- Casp3/7 activation on SLC35F2 shRNA knockdown (Casp-3/7): ablated
- Casp-3/7 activation in RIPK2 shRNA knockdown cells vs non-targeting control (Casp-3/7): significantly reduced
- Casp-3/7 activation (Casp-3/7): Casp-3/7 activation was observed
- IC50 (U118MG; hypo-MGMT methylated): 11 nM
- tumor growth by FMT imaging [6]: significant inhibition of tumor growth
- fold less potent compared to YM155 ([7]; NPC): 19 fold
- IC50 ([7]; control cell type, 72 hours): 97 nM
- survivin expression levels in human tumor tissue (survivin mRNA; 5 and 15 mg/kg B.I.D.): significantly decrease survivin expression levels
- survivin expression in normal brain tissue (survivin mRNA): no effect
- hERG channel inhibition (hERG channel): < 20%
- tolerability (weight loss and behavioral observations) [8]: well tolerated
- cell viability on loss of RIPK2 (HT-1080 cells): significant rescue of cell viability
- potency compared to YM155 (GBM-F; GBM-F): ~ equivalent
- IC50 (GBM-F; cell killing, 72 hours): 0.65 nM

Compound: CC(=O)N(Cc1ccc(F)cc1)C1=C(NCc2ccccc2)C(=O)c2ccccc2C1=O [RIPGBM]
- IC50 (GBM-A; cell killing, 72 hours): 200 nM
- IC50 (GBM-F; cell killing): 400 nM

Compound: Cc1n(Cc2ccc(N=[N+]=[N-])cc2)c2c([n+]1CCOCCOCCNC(=O)CCCC[C@@H]1SC[C@@H]3NC(=O)N[C@@H]31)C(=O)c1ccccc1C2=O [cRIPGBM-PAP]
- Kd [9]: 2300 nM

- IC50 (U87-EGFRvIII cells; 24 h): 20 nM
- potency of inhibition of cRIPGBM-PAP RIPK2 labeling relative to cRIPGBM [13]: ~ 10 fold
- inhibition of UV-dependent covalent labeling of RIPK2 by cRIPGBM-PAP ([13]; cRIPGBM-PAP 1 μM, at concentrations as low as 30nM): at least 50%
Compound: COCCn1c2c([n+](Cc3cnccn3)c1C)C(=O)c1ccccc1C2=O [YM155, sepantronium bromide]
- IC50 ([1]; Homo sapiens, Fibroblast): 92 nM
- IC50 (LN229; Homo sapiens, LN-229, read-out: LN229 IC50): 2.8 nM
- brain exposure [2]: no brain exposure above limits of quantification
- IC50 ([3]; Homo sapiens, Astrocyte, 72 h): 5.1 nM
- survivin expression on RIPK2 knockdown (Survivin [10]): significant rescue of survivin expression
- IC50 (GBM-A; Homo sapiens, 72 h): 4.5 nM
- IC50 ([5]; Homo sapiens): 5 nM
- IC50 [11]: 3.1 nM
- cell viability on loss of RIPK2 (U87-EGFRvIII cells; 24 hours): significant rescue of cell viability
- sensitivity following shRNA-mediated RIPK1 knockdown (U87-EGFRvIII cells): No significant differences in sensitivity
- Casp3/7 activation on SLC35F2 shRNA knockdown (Casp-3/7): ablated
- Casp-3/7 activation in RIPK2 shRNA knockdown cells vs non-targeting control (Casp-3/7): significantly reduced
- Casp-3/7 activation (Casp-3/7): Casp-3/7 activation was observed
- IC50 (U118MG; Homo sapiens, U-118-MG): 3.7 nM
- concentration required to significantly impact survivin protein levels (Survivin [12]; HT-1080 RIPK2 shRNA cells): 100 nM
- concentration giving significant reduction of survivin protein levels (Survivin [12]; HT-1080 non-targeting shRNA control cells): 10 nM
- IC50 ([7]; Homo sapiens, 72 h): 5 nM
- IKK activation (IκBα phosphorylation) (IκBα phosphorylation): reduced IKK activation
- cell viability on loss of RIPK2 (HT-1080 cells): significant rescue of cell viability
- IC50 (GBM-F; Homo sapiens, 72 h): 0.78 nM
- Casp-1 activation (Casp-1): time dependent activation of Casp-1

Compound: Cc1n(Cc2ccc(F)cc2)c2c([n+]1Cc1ccccc1)C(=O)c1ccccc1C2=O [cRIPGBM]
- IC50 (GBM-A; cell killing, 72 hours): 27 nM
- IC50 (GBM-F; cell killing): 70 nM
